Data set [1] is described as follows: Rheology of peptide gel (frequency sweep of shear moduli). The conditions noted are these: 1 wt % peptide gel at pH 4.4; cone and plate; constant stress 30 Pa; ω = 100 rad s^–1. Type of data set: physicochemical. The text has this: (§1) Peptide […] is able to form a hydrogel under precisely defined conditions. […] The apple-green birefringence of the peptide gel stained with Congo red (Figure 6b) together with TEM images (Figure 6c) reveal that the hydrogel comprises a tight network of 20–50 nm wide peptide nanotapes. The viscoelastic response of the gel was studied by rheology. The linear regime was first identified by strain sweep experiments (Figure S5). The elastic modulus G′ > G′′ (the shear loss modulus) and G′ is weakly dependent on frequency and reaches a value >10^5 Pa at a high frequency (ω = 100 rad s^–1). These are all characteristic rheological signatures of gels, and the high frequency value of G′ is higher than that observed for many peptide hydrogels.[48] The FTIR spectrum shown in Figure 6e is very similar to that discussed for the solutions of 1 wt % […] at pH 4 and 5 and is consistent with a β-sheet secondary structure. The SAXS data was again fitted using a model form factor of Gaussian bilayers (Figure 6f). The XRD data is characterized by strong diffraction peaks at 10 and 4.7 Å, consistent with an amyloid cross-β diffraction pattern.[12],[49]−[51] The other weaker peaks can also be ascribed to β-sheet features.[49],[52]−[57]
Dynamic shear moduli were measured using a controlled stress AR-2000 rheometer from TA Instruments. […]

The nature of data set [2]: Hydrogel formation (tube inversion) as a function of pH. Type of data set: physicochemical. The conditions noted are these: 1 wt % peptide in aqueous NaOH; cloudy gel, does not flow under tube inversion; liquid at the other pH values studied (pH 3-12).
Text: as §1, with “The XRD data is characterized by strong diffraction peaks at 10 and 4.7 Å, consistent with an amyloid cross-β diffraction pattern.[12],[49]−[51] The other weaker peaks can also be ascribed to β-sheet features.[49],[52]−[57]” left out
Peptide […] was supplied by Peptide Synthetics (Peptide Protein Research Limited), Fareham, UK as a TFA salt. The molar mass by electrospray mass spectrometry is 1405.595 g mol^–1 and the purity is >95%, determined by high performance liquid chromatography (HPLC) in a gradient HPLC using an acetonitrile (0.1% TFA)/water (0.1% TFA) gradient with a Kinetex 2.6u XB-C18 100A column. […]

Data on one sequence can be found in article PMC8867915, “Amyloid and Hydrogel Formation of a Peptide Sequence from a Coronavirus Spike Protein” (ACS Nano, 2022).

With RSAIEDLLFDKV, in data set [1], the “shear elastic modulus G′ at high frequency” value is > 10^5 Pa. Besides, in data set [2], the “pH at which hydrogel formation is observed” value amounted to 4.4 pH.
